In US20230203029A1 (priority 2020, published 2023):

Columns and labels:
[1] = target: T1, human AXL cytoplasmic domain (Homo sapiens, UniProt P30530); assay: Assay 1b AXL HTRF KinEASE-TK assay; type: biochemical
T1 construct: human AXL cytoplasmic domain (Thermo Fisher A31515); purchased Thermo Fisher A31515
T1 sequence (P30530 473-894 limits assumed): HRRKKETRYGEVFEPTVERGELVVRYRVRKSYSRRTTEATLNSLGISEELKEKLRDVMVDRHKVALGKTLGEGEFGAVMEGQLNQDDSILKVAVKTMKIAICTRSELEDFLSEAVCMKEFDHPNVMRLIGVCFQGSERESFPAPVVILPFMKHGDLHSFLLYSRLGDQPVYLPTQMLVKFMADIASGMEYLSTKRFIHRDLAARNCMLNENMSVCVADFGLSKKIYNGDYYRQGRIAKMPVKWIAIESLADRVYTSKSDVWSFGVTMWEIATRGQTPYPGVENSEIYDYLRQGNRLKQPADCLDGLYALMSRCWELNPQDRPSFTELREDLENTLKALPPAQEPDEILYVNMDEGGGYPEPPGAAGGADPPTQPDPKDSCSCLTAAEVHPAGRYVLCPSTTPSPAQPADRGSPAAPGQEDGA
Protocol: Assay 1b—AXL HTRF KinEASE-TK Assay
Compound inhibition of human AXL cytoplasmic domain (Thermo Fisher A31515) enzymatic activity was tested via the HTRF KinEASE-tyrosine kinase (TK) kit (Cisbio 62TK0PEC). Experiments were performed in 20 μl enzymatic buffer (Cisbio 62EZBFDD) supplemented with 5 mM MgCl2, 1 mM MnCl2, 1 mM DTT, 50 nM SEB (Cisbio, 61SEBALB), with 5 nM of AXL and the test compounds of interest. […] The enzymatic reaction was carried out for 30 min at room temperature. 10 μL TK Antibody-Cryptate/Streptavidin-XL665 (Cisbio 610SAXLG) was then added for 60 min, including EDTA containing detection buffer (Cisbio 62SDBRDF) to stop the reaction. The plate was read on a BMG Pherastar FSX using a HTRF 337/620/665 optical module to excite the terbium donor at 337 nm, and record donor emission at 620 nm and acceptor fluorophore emission at 665 nm. From this the FRET ratio (acceptor 665 nm/donor 620 nm) for each data point was calculated. […] Competition curves were then fit to a 4 parameter logistic equation including a variable slope factor to determine the IC50 (compound concentration that inhibits 50% of AXL activity).

[2] = target: T2, human MERTK cytoplasmic domain (Homo sapiens, UniProt Q12866); assay: biochemical; settings: 30 uM ATP; read-out: Assay 1a Mer IC50 30 uM ATP
T2 construct: human MERTK cytoplasmic domain (Carna Biosciences 08-108); purchased Carna Biosciences 08-108
Protocol: Assay 1a—MERTK HTRF KinEASE-TK Assay
The enzymatic reaction was carried out for 30 min at room temperature. 10 μL TK Antibody-Cryptate/Streptavidin-XL665 (Cisbio 610SAXLG) was then added for 60 min, including EDTA containing detection buffer (Cisbio 62SDBRDF) to stop the reaction.

[3] = target: T3, Ba/F3 Pro B-cell line expressing BCR-human AXL kinase domain fusion protein (Homo sapiens, UniProt P30530); assay: Assay 5 Ba/F3 cell survival assay, BCR-Axl; type: cell-based; settings: read-out: BCR-Axl Ba/F3 IC50, 48 h, CellTiter-Glo
T3 construct: P11274 (Breakpoint cluster region protein)
T3 sequence (P30530 536-807 limits assumed): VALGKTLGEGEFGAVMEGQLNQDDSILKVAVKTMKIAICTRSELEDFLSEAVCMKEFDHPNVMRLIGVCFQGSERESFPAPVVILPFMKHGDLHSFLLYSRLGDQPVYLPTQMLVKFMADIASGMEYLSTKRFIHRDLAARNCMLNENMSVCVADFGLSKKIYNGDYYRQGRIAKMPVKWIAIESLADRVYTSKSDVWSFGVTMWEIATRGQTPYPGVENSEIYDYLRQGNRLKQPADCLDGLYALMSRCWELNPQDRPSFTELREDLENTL
Protocol: (§1) Assay 5—Ba/F3 Cell Survival Assays.
(§2) The inhibitory potencies of compounds were assessed in a Ba/F3 cell survival assay, using the Ba/F3 Pro B-cell line, recombinantly expressing a BCR-human AXL kinase domain fusion protein (pACD320/AXL, Advanced Cellular Dynamics Inc), TEL-human MERTK fusion domain (pACD1000/MERTK, Advanced Cellular Dynamics Inc), TEL-human Tyro3 fusion domain (pACD1000/TYRO3, Advanced Cellular Dynamics Inc), or control TEL-none (ACD320, Advanced Cellular Dynamics Inc) BRC-none constructs (ACD1000, Advanced Cellular Dynamics Inc). 10 ng/mL recombinant murine IL3 (R&D, 403-ML-010) was included in the media when propagating negative control TEL-none or BCR-none lines only. […] The final assay DMSO concentration was 0.25%. Compound incubations were conducted for 48 h at 37° C./5% CO2, after which cell plate was equilibrated at room temperature for 20 minutes prior to assessing viability. 15 μl of Promega CellTiter-Glo reagent (G7572) was added to each well for 2 min on an orbital shaker to induce cell lysis.
(§3) The plate was then equilibrated for 5 min at room temperature and luminescence read on a BMG Pherastar FSX using the LUM plus optic module. […] Competition curves were then fit to a 4 parameter logistic equation including a variable slope factor to determine the IC50 (compound concentration causing a half-maximal inhibition of cell survival).

[4] = target: T4, Ba/F3 Pro B-cell line expressing TEL-human MERTK fusion domain (Homo sapiens, UniProt Q12866); type: cell-based; settings: cell survival, 48 h, CellTiter-Glo; read-out: TEL-MERTK Ba/F3 IC50
T4 sequence (Q12866 587-858 limits assumed): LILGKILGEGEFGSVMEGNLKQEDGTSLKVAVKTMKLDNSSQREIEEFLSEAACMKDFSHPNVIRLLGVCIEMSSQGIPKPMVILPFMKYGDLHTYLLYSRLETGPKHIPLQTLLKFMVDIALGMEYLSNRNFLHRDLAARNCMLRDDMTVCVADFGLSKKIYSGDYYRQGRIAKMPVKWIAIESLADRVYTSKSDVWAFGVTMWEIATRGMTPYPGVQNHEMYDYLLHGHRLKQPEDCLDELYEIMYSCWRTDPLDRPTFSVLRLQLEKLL
Protocol: as §1, §2, §3

[5] = target: T5, Ba/F3 Pro B-cell line expressing TEL-human Tyro3 fusion domain (Homo sapiens, UniProt Q06418); type: cell-based; settings: cell survival, 48 h, CellTiter-Glo
T5 sequence (Q06418 518-790 limits assumed): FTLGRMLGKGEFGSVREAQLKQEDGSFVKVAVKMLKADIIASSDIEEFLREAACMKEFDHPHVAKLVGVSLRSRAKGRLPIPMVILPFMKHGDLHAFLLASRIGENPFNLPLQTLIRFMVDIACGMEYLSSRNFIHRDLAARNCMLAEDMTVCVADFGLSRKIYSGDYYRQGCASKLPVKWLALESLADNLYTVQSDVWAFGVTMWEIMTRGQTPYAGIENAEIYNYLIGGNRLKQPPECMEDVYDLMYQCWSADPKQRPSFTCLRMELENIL
Protocol: as §1
as §2, with “only. Cells were maintained in RMPI 1640 (Corning 15-040-CV) culture media containing 10% heat inactivated semi-synthetic FBS (RMBIO FGR-BBT), 2 mM L-Glutamine (Sigma, G7513), 100 IU/mL Penicillin-[…] Streptomycin (Sigma, P4333), and 500 ng/mL Puromycin (Sigma, P8833). Experiments were performed in 50 μl growth media, including the test compounds of interest, and dispensing 5000 cells/well in logarithmic-phase growth into a 384 well white Optiplate (Perkin Elmer 6007299).” for “only.”
The plate was then equilibrated for 5 min at room temperature and luminescence read on a BMG Pherastar FSX using the LUM plus optic module. Data were normalised to measurements in the absence of competing compound (0% inhibition). Competition curves were then fit to a 4 parameter logistic equation including a variable slope factor to determine the IC50 (compound concentration causing a half-maximal inhibition of cell survival).

T2 sequence (Q12866 527-999): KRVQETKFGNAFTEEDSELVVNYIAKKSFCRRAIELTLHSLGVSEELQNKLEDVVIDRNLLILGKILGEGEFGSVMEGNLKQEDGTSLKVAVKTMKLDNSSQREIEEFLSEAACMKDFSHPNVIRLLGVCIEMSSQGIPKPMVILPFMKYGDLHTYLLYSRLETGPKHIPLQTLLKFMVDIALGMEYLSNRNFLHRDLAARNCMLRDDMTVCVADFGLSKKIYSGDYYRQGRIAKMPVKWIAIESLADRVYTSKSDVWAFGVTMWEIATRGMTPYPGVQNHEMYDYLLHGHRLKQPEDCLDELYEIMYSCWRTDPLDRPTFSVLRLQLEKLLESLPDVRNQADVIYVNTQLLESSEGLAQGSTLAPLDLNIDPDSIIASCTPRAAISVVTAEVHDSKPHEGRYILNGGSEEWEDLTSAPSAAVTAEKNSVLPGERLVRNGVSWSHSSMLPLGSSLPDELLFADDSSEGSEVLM

| SMILES | IC50 [1] [nM] | IC50 [2] [nM] | IC50 [3] [nM] | IC50 [4] [nM] | IC50 [5] [nM] |
| --- | --- | --- | --- | --- | --- |
| CN1CCC(NC(=O)c2cc3c(Oc4ccc(NC(=O)c5cccn(-c6ccc(F)cc6)c5=O)cc4)ccnc3cn2)CC1 [Example 8.1, 4-[4-[[1-(4-fluorophenyl)-2-oxo-pyridine-3-carbonyl]amino]phenoxy]-N-(1-methyl-4-piperidyl)-1,7-naphthyridine-6-carboxamide] | 28 | 4 | 7 | 17 | 48 |
| CC(C)n1cc(C(=O)Nc2ccc(Oc3ccnc4cnc(C(=O)NC5CCN(C)CC5)cc34)cc2)c(=O)n(-c2ccc(F)cc2)c1=O [Example 8.2, 4-[4-[[3-(4-fluorophenyl)-1-isopropyl-2,4-dioxo-pyrimidine-5-carbonyl]amino]phenoxy]-N-(1-methyl-4-piperidyl)-1,7-naphthyridine-6-carboxamide] | 10 | 10 | 3 | 30 | 120 |
| CC(C)n1cc(C(=O)Nc2ccc(Oc3ccnc4cnc(C(=O)NC5CCN(C)CC5)cc34)cc2)c(=O)n(-c2ccc(F)cn2)c1=O [Example 9, 4-[4-[[3-(5-Fluoro-2-pyridyl)-1-isopropyl-2,4-dioxo-pyrimidine-5-carbonyl]amino]phenoxy]-N-(1-methyl-4-piperidyl)-1,7-naphthyridine-6-carboxamide] | 11 | 14 | 6 | 85 | 252 |
| CC(C)n1cc(C(=O)Nc2ccc(Oc3ccnc4cnc(C(=O)NC5CCN(C)CC5)cc34)cc2)c(=O)n(-c2cc(F)cc(F)c2)c1=O [Example 9.1, 4-[4-[[3-(3,5-difluorophenyl)-1-isopropyl-2,4-dioxo-pyrimidine-5-carbonyl]amino]phenoxy]-N-(1-methyl-4-piperidyl)-1,7-naphthyridine-6-carboxamide] | 13 | 12 | 25 | > 2500 | > 2500 |
| O=C(Nc1ccc(Oc2ccnc3cnc(N4CCNCC4)cc23)cn1)c1cccn(-c2ccc(F)cc2)c1=O [Example 10, 1-(4-fluorophenyl)-2-oxo-N-[5-[(6-piperazin-1-yl-1,7-naphthyridin-4-yl)oxy]-2-pyridyl]pyridine-3-carboxamide] | 29 | 5 | 28 | 24 | 148 |
| CN1CCC(C(=O)Nc2cc3c(Oc4ccc(NC(=O)c5cccn(-c6ccc(F)cc6)c5=O)nc4)ccnc3cn2)C1 (centres unmarked) [Example 18, 1-(4-Fluorophenyl)-N-[5-[[6-[(1-methylpyrrolidine-3-carbonyl)amino]-1,7-naphthyridin-4-yl]oxy]-2-pyridyl]-2-oxo-pyridine-3-carboxamide] | 34 | 2 |  | 3 | 165 |
| CN1CCC(C(=O)Nc2cc3c(Oc4ccc(NC(=O)c5cccn(-c6ccc(F)cc6)c5=O)nc4)ccnc3cn2)CC1 [Example 18.1, 1-(4-fluorophenyl)-N-[5-[[6-[(1-methylpiperidine-4-carbonyl)amino]-1,7-naphthyridin-4-yl]oxy]-2-pyridyl]-2-oxo-pyridine-3-carboxamide] | 10 | 1 |  | 13 | 250 |
| CC(C)n1cc(C(=O)Nc2ccc(Oc3ccnc4cnc(C5CCN(C)CC5)cc34)cn2)c(=O)c(-c2ccc(F)cc2)c1 [Example 23, 5-(4-fluorophenyl)-1-isopropyl-N-[5-[[6-(1-methyl-4-piperidyl)-1,7-naphthyridin-4-yl]oxy]-2-pyridyl]-4-oxo-pyridine-3-carboxamide] | 12 | 3 |  | 2 | 429 |
| CC(C)n1cc(C(=O)Nc2ccc(Oc3ccnc4cnc(C(=O)N[C@H]5CCN(C)C5)cc34)cn2)c(=O)n(-c2ccc(F)cc2)c1=O [Example 27.4, 4-[[6-[[3-(4-fluorophenyl)-1-isopropyl-2,4-dioxo-pyrimidine-5-carbonyl]amino]-3-pyridyl]oxy]-N-[(3S)-1-methylpyrrolidin-3-yl]-1,7-naphthyridine-6-carboxamide] |  | 14 | 14 | 44 | 377 |
